Measurements taken from patent US7741464B2, “Compositions and methods of using CRMP-1 and its fragments for treating cancer” (Advpharma Inc., priority 2007, dated 2010).
Where two headings read alike, the source gives them in different places. Each block holds one compound with its values, some of them ahead of it.

Experiments:
[1] = system: transient transfected colorectal cell lines (Caco-2, CC-M1, DLD-1); test: Chemosensitivity of transient transfectants (cell counting); assay type: cell-based, human; conditions: with pNCRMP1 or pNCN3 transient transfected colorectal cell lines; data not shown
Procedure: (§1) Six human cancer cell lines, including human colon cancer cell lines Caco-2, CC-M1, DLD-1; human prostate cancer cell lines DU145, PC-3; and human breast cancer cell line MCF-7, were tested in an experiment on improvement of chemosensitivity. Two expression plasmids, pNCRMP1 and pNCN3, and the pCI-neo vector (control plasmid), were used for transfection, respectively. The general cultivation conditions and transfection procedures were the same as described in Example 3.
(§2) Treatment of transient transfected cell lines using chemical agent was immediately performed as follows, and quantification of viable cells was performed by counting using hemocytometer after 3-days incubation at 37° C.: • (1) Three types of transient transfected human colorectal cancer cells were treated with 5-fluorouracil; • (2) The transient transfected human prostate cancer cell line DU145 was treated with Adriamycin™ (doxorubicin), cyclophosphamide and etoposide; • (3) The transient transfected human prostate cancer cell line PC3 was treated with cyclophosphamide, etoposide, and paclitaxel; and, • (4) The transient transfected human breast cancer cell line MCF-7 was treated with Adriamycin™ (doxorubicin) and paclitaxel.

[2] = system: MCF-7 transient transfectants; test: as above; assay type: cell-based; conditions: Homo sapiens, MCF7, 72 h, read-out: IC50 of chemical agent
Procedure: as §1, §2

[3] = system: H520 stable transfectants; test: Chemosensitivity (MTT cytotoxicity) of stable transfectants; assay type: cell-based; conditions: Homo sapiens, read-out: IC50 of chemical agent
Description: Three human cancer cell lines, including lung cancer cell line H520 and two human prostate cancer cell lines (PC-3 and DU145) were applied for selection of stable transfectants. Four expression plasmids, including pNCRMP1, pNCN1, pNCN3, and pNCN4, and the pCI-neo vector (as control plasmid) were used for transfection, respectively. The general cultivation condition and transfection procedures were the same as described in Example 3. The transfected cells were further cultivated under the same conditions as their parental cell lines and selected with 0.6-1 mg antibiotic G418 per ml (Kao et al., Oncogene 16: 546-554 (1998); Xiaolin et al, Cancer Research 65: 9762-9770 (2005)).
Three agents, including caffeic acid phenethyl ester (CAPE; Sigma, US), Adriamycin™ (doxorubicin) (Pharmacia & Upjohn S.P.A. Milan, Italy), and paclitaxel (Taxol; Bristol-Myers Squibb Co., Wallingford, Conn.), were dissolved in DMSO (dimethyl sulfoxide; Sigma) for preparation of stock solution, respectively. A serial dilution was prepared with DPBS buffer for chemosensitivity tests. The human lung squamous carcinoma stable transfectants H520 were treated with both CAPE and Adriamycin™ (doxorubicin) for four different concentrations, e.g. 0.05, 0.01, 0.002, and 0.0004 mM, while the administering of paclitaxel was performed at different concentrations, e.g. 1000, 200, 40, and 8 nM. Both types of prostate stable transfectants were only treated with paclitaxel for eight concentrations ranging from 0.1 mM to 1.28 nM with 1/5 dilution each step.
MTT (3-(4,5-dimethylthiazol-2-yl)-2,5-diphenyltetrazolium bromide; Sigma, Inc.) assay (Monks et al., J. Natl. Cancer Inst. 83:757-766 (1991); Paull et al, J. Natl. Cancer Inst. 81:1088-1092 (1989)) was applied for studying the cytotoxic effect of indicated agent. The absorbance was measured both at 545 nm and at 690 nm (served as reference) using the 96-well spectrophotometer reader (Emax, Molecular Device Inc., California, US) (Chen et al., Yi Xue Za Zhi (Taipei) 46:7-16 (1990)). The relative growth inhibition was calculated as follows: Relative growth inhibition=100%×(1−(OD545nm (Treated cells)−OD690nm(Treated cells))÷(OD545nm(untreated cells)−OD690nm(untreated cells)))
The 50% inhibition concentration (IC50) was determined after graphical plotting of spectrophotometric measurements and interpolation by EXCEL software.

[4] = system: DU145 transient transfectants; test: Chemosensitivity of transient transfectants (cell counting); assay type: cell-based, human; conditions: read-out: IC50 of chemical agent
Procedure: as §1, §2

[5] = system: PC-3 transient transfectants; test: as above; assay type: cell-based; conditions: Homo sapiens, 72 h
Procedure: as §1, §2

[6] = system: DU145 cells; test: Antiproliferative effect after transient transfection; assay type: cell-based, human; conditions: for selectivity on antiproliferative ability: prostate cancer cells (PC-3, DU145) vs human prostate normal cell line PZ-HPV-7
Description: (§3) All cell lines were purchased from Food Industry Research and Development Institute (FIRDI), Hsinshu, Taiwan. They were originated from different tissues or organs, including: • (1) human lung cancer cells: adenocarcinoma A549 (BCRC60074), squamous cell carcinoma H520 (BCRC60124), and large-cell carcinoma H460 (CCRC600373), • (2) human prostate cancer cell: adenocarcinoma PC-3 (CCRC60112) and carcinoma DU145 (CCRC60348) isolated from metastatic brain site; • (3) human colon cancer cells: adenocarcinoma SW 480 (CCRC60249), CC-M1 (BCRC60448), and DLD-1 (CCRC60132); • (4) human breast cancer cells: ductal carcinoma BT-474 (CCRC 60359), MCF-7 (CCRC60436), and ZR-75-1 (CCRC60055); • (5) Chinese hamster lung cell V79-4 (BCRC60183), and • (6) human prostate normal cell PZ-HPV-7 (CCRC60136).
(§4) The cultivation of cell lines was as described as the instruction provided by Food Industry Research and Development Institute (FIRDI), while 10% fetal bovine serum (JRH Biosciences, USA) was supplemented as final concentration, if necessary. The human prostate normal cell line PZ-HPV-7 was maintained in Keratinocyte-SFM medium (Life Technologies, Inc., US).
(§5) Mammalian cells were seeded to 6-well plate (Corning Inc., USA) with a cell density of 2˜8×10^5 and incubated at 37° C. for overnight prior to transfection. Each cell line was respectively transfected with the pCI-neo Mammalian Expression Vector (as control plasmid; Promega, USA) or with the hCRMP-1-related expression plasmid by using Lipofectamine™ Reagent (Invitrogen, #18324-020). A series of expression plasmid containing full-length or partial gene fragment of hCRMP-1, were pNCRMP1, pNCN1, pNCN3, pNCN4, pNCN5, pNCN6, and pNCN7, whose constructions were described in Example 1 and Example 2.
(§6) The nomenclature of transfected cell line was according to the cell line and expression plasmid and characterized as “cell line/expression plasmid.” Quantitation of viable cells after transfection was performed by using hemocytometer after 5-days incubation at 37° C. (R. Ian Freshney: Culture of Animal Cells, A Manual of Basic Technique, Chapter 20, pp. 309-312, WILEY-LISS, Canada (2000)).
(§7) The antiproliferative effect (in percentage) of each cell line transfected with individual expression plasmid was normalized with the same cell line transfected with control plasmid as follows: Antiproliferative effect=100%×(1−(number of cells transfected with expression plasmid÷number of cells transfected with control plasmid))

[7] = system: PC-3 cells; test: as above; assay type: cell-based, human; conditions: PC-3, transient transfection, 5-days incubation, normalized to pCI-neo control plasmid
Description: as §3, §4, §5, §6, §7

[8] = system: H460 cells; test: as above; assay type: cell-based, human; conditions: viable cells counted after 5-days incubation, normalized to pCI-neo control plasmid
Description: as §3, §4, §5, §6, §7

[9] = system: CC-M1 cells; test: as above; assay type: cell-based, human; conditions: 5-days incubation, normalized to pCI-neo control plasmid
Description: as §3, §4, §5, §6, §7

[10] = system: MCF-7 cells; test: as above; assay type: cell-based, human; conditions: MCF-7, transient transfection, 5-days incubation, normalized to pCI-neo control plasmid
Description: as §3, §4, §5, §6, §7

[11] = system: poorly differenciated human lung adenocarcinoma cells; conditions: cells established from a patient; Shih et al., J. Natl. Cancer Inst. 93(18) (2001); cited from earlier work
[12] = NCI-H520, stable transfectant H520/pCI-neo/1 (control plasmid), MTT
[13] = NCI-H520, stable transfectant H520/pNCN1/1, MTT
[14] = NCI-H520, stable transfectant H520/pNCN3/1, MTT
[15] = NCI-H520, stable transfectant H520/pNCN4/1, MTT
[16] = NCI-H520, stable transfectant H520/pNCRMP1/1, MTT
[17] = Homo sapiens, DU-145, 72 h, transient transfectant DU145/pCIneo (control plasmid), 3-days incubation
[18] = Homo sapiens, DU-145, 72 h, transient transfectant DU145/pNCN3, 3-days incubation
[19] = Homo sapiens, DU-145, 72 h, transient transfectant DU145/pNCRMP1, 3-days incubation

Compound: O=c1[nH]cc(F)c(=O)[nH]1 [5-fluorouracil]
- improvement of chemosensitivity [1]: no improvement of chemosensitivity

- IC50 ([2]; transient transfectant MCF-7/pCIneo (control plasmid), 3-days incubation): 2130 nM
- IC50 ([2]; transient transfectant MCF-7/pNCN3, 3-days incubation): 320 nM
- IC50 ([2]; transient transfectant MCF-7/pNCRMP1, 3-days incubation): 100 nM
- IC50 [4, 17]: 73 nM
- IC50 [4, 18]: 60 nM
- IC50 [4, 19]: 79 nM
Compound: COc1cccc2c1C(=O)c1c(O)c3c(c(O)c1C2=O)C[C@@](O)(C(=O)CO)C[C@@H]3O[C@H]1C[C@H](N)[C@H](O)[C@H](C)O1 [Adriamycin ™ (doxorubicin), doxorubicin]
- IC50 [3, 12]: 740 nM
- IC50 [3, 13]: < 400 nM
- IC50 [3, 14]: < 400 nM
- IC50 [3, 15]: 500 nM
- IC50 [3, 16]: < 400 nM

Compound: O=C(/C=C/c1ccc(O)c(O)c1)OCCc1ccccc1 [CAPE, caffeic acid phenethyl ester]
- IC50 [3, 12]: > 50000 nM
- IC50 [3, 13]: 23000 nM
- IC50 [3, 14]: 29000 nM
- IC50 [3, 15]: 27000 nM
- IC50 [3, 16]: 17000 nM

Compound: O=P1(N(CCCl)CCCl)NCCCO1 (centres unmarked) [Cyclophosphamide, cyclophosphamide]
- IC50 ([5]; read-out: IC50 of chemical agent, transient transfectant PC-3/pCIneo (control plasmid), 3-days incubation): > 100000 nM
- IC50 ([5]; read-out: IC50 of chemical agent, transient transfectant PC-3/pNCN3, 3-days incubation): 55000 nM
- IC50 ([5]; read-out: IC50 of chemical agent, transient transfectant PC-3/pNCRMP1, 3-days incubation): > 100000 nM
- IC50 ([4]; Homo sapiens, DU-145, 72 h): > 100000 nM
- IC50 ([4]; transient transfectant DU145/pCIneo (control plasmid), 3-days incubation): > 100000 nM
- IC50 ([4]; transient transfectant DU145/pNCN3, 3-days incubation): > 100000 nM

- IC50 ([5]; transient transfectant PC-3/pCIneo (control plasmid), 3-days incubation, read-out: IC50 of chemical agent): 64000 nM
- IC50 ([5]; transient transfectant PC-3/pNCN3, 3-days incubation, read-out: IC50 of chemical agent): > 100000 nM
- IC50 ([5]; transient transfectant PC-3/pNCRMP1, 3-days incubation, read-out: IC50 of chemical agent): 33000 nM
- IC50 [4, 17]: 460 nM
- IC50 [4, 18]: 710 nM
- IC50 [4, 19]: 710 nM
Compound: COc1cc([C@@H]2c3cc4c(cc3[C@@H](O[C@@H]3O[C@@H]5CO[C@@H](C)O[C@H]5[C@H](O)[C@H]3O)[C@H]3COC(=O)[C@H]23)OCO4)cc(OC)c1O [Etoposide, etoposide]

Compound: CN3: active fragment of hCRMP-1, 208-480 of SEQ ID NO: 1 (SEQ ID NOS: 17 and 39)
- selectivity on antiproliferative ability [6]: around 20%

Compound: CN7: active fragment of hCRMP-1, 458-572 of SEQ ID NO: 1 (SEQ ID NOS: 25 and 43)
- selectivity on antiproliferative ability [6]: 28%

Compound: full-length hCRMP-1: human collapsin response mediator protein-1, full-length protein with 572 amino acids (SEQ ID NO: 1)
- Anti-proliferation effect [7]: inhibits cancer cell proliferation
- Anti-proliferation effect [8]: inhibits cancer cell proliferation
- Anti-proliferation effect ([8]; listed as full-length CRMP-1): has antiproliferative activity
- Anti-proliferation effect [9]: inhibits cancer cell proliferation
- Anti-proliferation effect ([6]; DU145, transient transfection, 5-days incubation, normalized to pCI-neo control plasmid): inhibits cancer cell proliferation
- Anti-proliferation effect [10]: inhibits cancer cell proliferation
- antiproliferative activity [11]: no antiproliferative activity
